In series [1] the test system is Angiotensin Converting Enzyme. The experiment in a line: Serum ACE activity (Sigma kit, FAPGG substrate) in treated ischemic rabbits. Format: in vivo, New Zealand White rabbits. The note with it: for residual ACE activity in serum (D14 serum activity/D10 serum activity): D14, 24 hours after injection, daily s.c. captopril 25 mg or quinaprilat 2 mg; for serum ACE activity as percentage of basal value: D40, after 5 days of discontinuation of injections; for serum ACE inhibition at any time: daily s.c. treatment, inferred from 24 hour trough at D14. On the procedure:
The serum ACE activity in the blood samples obtained from ear vein was determined using a kit obtained from Sigma (St. Louis, Mo.). The procedure used is a spectrophotometric method utilizing the synthetic tripeptide substrate N-[3-(2-furyl)acryloyl]-L-phenylalanylglycylglycine (FAPGG). ACE catalyzes hydrolysis of FAPGG to furylacryloylphenylalanine (FAP) and glycylglycine, which results in a decrease in absorbance at a wavelength of 340 nm. The ACE activity in the sample was determined by comparing the sample reaction rate to that obtained with an ACE calibrator.
The efficiency of the treatment is calculated as the percentage of the D10 serum activity according to the ratio: D14 serum activity/D10 serum activity.
For the latter drug, tablets were daily dissolved in saline serum and the resulting suspension was injected. Acetylcholine chloride, serotonin […] sulfate, and sodium nitroprusside were all purchased from Sigma Chemical Co., St. Louis, Mo.

For series [2], the system named is Angiotensin Converting Enzyme. The series can be described thus: Tissue ACE activity in thigh muscle homogenate of treated rabbits. Format: in vivo, New Zealand White rabbits. The note with it: for mean tissue ACE activity in thigh muscles: additional rabbits treated D10 up to D35; for residual tissue ACE activity, % of non-treated tissue activity: thigh muscle, treated D10 up to D35. An excerpt:
Then, they were sacrificed, and muscles harvested for tissue in order to measure tissue ACE activity.
In order to determine the tissue ACE activity, muscles from the additional group were harvested, weighed, and homogenized in PBS. The obtained solution was used as a substrate for the ACE determination kit (Sigma, St. Louis, Mo.), and the result, divided by sample weight, is expressed as international units per gram of tissue (Ul/g).

For series [3], the system named is rabbit ischemic hindlimb model. The series can be described thus: Lower-limb blood pressure ratio (ischemic/normal limb). The series is classed as in vivo, New Zealand White rabbits. The note with it: D40. As to the method: (§1) The animal model was a previously described rabbit ischemic hindlimb model (J. Clin. Invest. 93:662-670). […] A longitudinal incision was then performed, extending from the inguinal ligament to a point just proximal to the patella. Through this incision, the femoral artery and each of its branches were dissected free along its entire length. After dissecting the popliteal and saphenous arteries distally, the external iliac artery and all of the above arteries were ligated with 4.0 silk (Ethicon, Sommerville, N.J.). Finally, the femoral artery was completely excised from its proximal origin as a branch of the external iliac artery, to the point distally where it bifurcates to form the saphenous and popliteal arteries. Following excision of the femoral artery, retrograde propagation of thrombus leads to occlusion of the external iliac artery. Blood flow to the ischemic limb consequently becomes dependent upon collateral vessels issuing from the internal iliac artery.
Animals with limb ischemia were randomly divided into 4 groups. […] The ischemic control group consisted of 6 rabbits receiving no medication of any kind.

In series [4] the test system is rabbit ischemic hindlimb model. The series can be described thus: Vasomotor reactivity: blood flow ratio in internal iliac artery after vasoactive agents. Format: in vivo, New Zealand White rabbits. The note with it: D40; for blood flow ratio (stimulated flow/basal flow), acetylcholine: acetylcholine 1.5 μg/min/kg intra-arterial; for blood flow ratio (stimulated flow/basal flow), nitroprusside: nitroprusside 1.5 μg/min/kg intra-arterial; for blood flow ratio (stimulated flow/basal flow), serotonin: serotonin 1.5 μg/min/kg intra-arterial. On the procedure: After measurement of lower limb blood pressure, a 3 Fr., end-hole infusion catheter (Tracker-i 8 TM, Target Therapeutics, San Jose, Calif.) was inserted into the left common carotid artery and advanced to the abdominal aorta. A 0.018 inch Doppler guidewire (Cardiometrics, Inc., Mountain View, Calif.) was advanced through the 3 Fr. infusion to the proximal segment of the internal iliac artery supplying the ischemic limb.
Vascular reactivity was assessed in this study measuring the variation of blood flow induced by vasodilators in the internal iliac artery of the ischemic limb. Blood flow was calculated from the Doppler measurements, using the formula QD =(πd^2 /4)(0.5×APV), where QD =Doppler-derived time average flow, d=vessel diameter, and APV=time average of the spectral peak velocity (Am. J Physiol., 1994;267:H1263-H1271). The mean velocity was estimated as 0.5×APV by assuming a time-averaged parabolic velocity profile across the vessel. […] The angiographic diameter of main collateral artery was determined using an automated edge-detection system that has been previously validated in vivo (Am. J Physiol., 1994;267:H1263-H1271). […] Center-lines were traced manually for a 10-mm long segment beginning immediately distal to the tip of the Doppler wire. The contours were subsequently detected automatically on the basis of the weighted sum of first and second derivative functions applied to the digitized brightness information. The vascular diameter was then measured at the site of the Doppler sample volume, i.e., 5 mm distal to the wire tip (Am. J Physiol., 1994;267:H1263-H1271). Cross-sectional area was calculated assuming a circular lumen.
The results of calculation for blood flow are expressed as the ratio of blood flow after vasodilator injection to basal blood flow, measured just before the injection.

Series [5] concerns rabbit ischemic hindlimb model. The note with it: D40 vs control. As to the method: Angiogenesis following resection of femoral artery was assessed at Day 10 (D10) and D40 post-operatively on functional (blood pressure ratio of ischemic to healthy limb, vasoreactivity and resistance) and morphological (angiography and capillary density) criteria.
as §1, with “Blood flow to the ischemic limb consequently becomes dependent upon collateral vessels issuing from the internal iliac artery.” left out
The four groups were investigated at D10 and D40 post-operatively at which time lower limb blood pressure, vasomotor reactivity, and angiographic score were evaluated. […]

The test system of series [6] is rabbit ischemic hindlimb model. The series can be described thus: Angiographic score of collateral development. The note with it: D40; medial thigh.
In series [7] the test system is rabbit ischemic hindlimb model. The experiment in a line: Capillary density in ischemic hindlimb muscles. The note with it: D40; medial thigh muscles of ischemic limb.
The test system of series [8] is rabbit ischemic hindlimb model. The series can be described thus: Vascular resistance ratio at internal iliac artery after vasoactive agents. The note with it: D40.
The next series has as its system coronary microvessels. The note with it: Greiss reaction (Circulation, 95:176-182); cited from earlier work.
For the next series, the system named is B2-receptor. The note with it: B2-receptor antagonist; cited from earlier work.
Where [9] appears, read: Day 10 (basal value, before treatment).
Setting [10] is: Day 40 (5 days after discontinuation).

Entries after “also recorded” stand apart in the source; their conditions may differ.

Turning to `C[C@H](N[C@@H](CCc1ccccc1)C(=O)O)C(=O)N1Cc2ccccc2C[C@H]1C(=O)O` [quinaprilat], in series [1], the “residual ACE activity in serum (D14 serum activity/D10 serum activity)” value worked out at 41.53±0.02%, the “serum ACE activity as percentage of basal value” is reported as 80.71±0.08% and the “serum ACE inhibition at any time” value is “higher than 50%”. Further, the “Serum ACE Activity” value in [1] (setting [9]) was 59.50 ± 1.38 U/L. Further, the “Serum ACE Activity” value in series [1] (Day 14 (efficiency value)) was found to be 24.32 ± 0.46 U/L. Moreover, the “Serum ACE Activity” value in [1] (setting [10]) is 46.40 ± 0.98 U/L. For the same molecule, in series [2], the “mean tissue ACE activity in thigh muscles” value was found to be 1.69±0.70 Ul/g and the “residual tissue ACE activity, % of non-treated tissue activity” value came to 13%. In series [3], the “ischemic/normal calf systolic blood pressure ratio” value was 0.86±0.03. In addition, in series [4], the “blood flow ratio (stimulated flow/basal flow), acetylcholine” value amounted to 3.06±0.25; the “blood flow ratio (stimulated flow/basal flow), nitroprusside” value is 2.94±0.24; the “blood flow ratio (stimulated flow/basal flow), serotonin” value was 1.17±0.08. The “stimulation of angiogenesis (functional and morphological criteria)” value in series [5] is on record as “more developed angiogenesis; also recorded: improvement; also recorded: stimulates angiogenesis in vivo”. Further, the “Body Weight” value in the series “Body weight (Table 1)” (Day 10) is on record as 4.19 ± 0.10 kg. Also, the “Body Weight” value in the series “Body weight (Table 1)” (Day 40) was 4.54 ± 0.20 kg. The angiographic score in series [6] is 51.19%. Besides, in series [7], the capillary density is reported as 214.0±6.4 /mm^2. In series [8], the “vascular resistance ratio (after injection/basal), acetylcholine” value was 0.32±0.03; the “vascular resistance ratio (after injection/basal), nitroprusside” value worked out at 0.28±0.02; the “vascular resistance ratio (after injection/basal), serotonin” value stood at 0.94±0.06.

With VEGF, the “ischemic/normal calf systolic blood pressure ratio” value in [3] was 0.74±0.03. Also, in series [4], the “blood flow ratio (stimulated flow/basal flow), acetylcholine” value is given as 2.72±0.22; the “blood flow ratio (stimulated flow/basal flow), nitroprusside” value turned out to be 2.66±0.35; the “blood flow ratio (stimulated flow/basal flow), serotonin” value came to 1.19±0.09. Also, the “stimulation of angiogenesis (functional and morphological criteria)” value in series [5] is recorded as “more developed angiogenesis”. Also, the angiographic score in series [6] came to 50.88±0.04%. The capillary density in series [7] is 228.8±9.6 /mm^2. Further, in [8], the “vascular resistance ratio (after injection/basal), acetylcholine” value was found to be 0.35±0.03; the “vascular resistance ratio (after injection/basal), nitroprusside” value was 0.29±0.04; the “vascular resistance ratio (after injection/basal), serotonin” value is recorded as 0.77±0.04.

For the molecule `C[C@H](CS)C(=O)N1CCC[C@H]1C(=O)O` [captopril], in series [1], the “residual ACE activity in serum (D14 serum activity/D10 serum activity)” value was found to be 42.54±0.03%, the “serum ACE activity as percentage of basal value” was 92.87±0.04% and the “serum ACE inhibition at any time” value was “higher than 50%”. Moreover, in series [1] (setting [9]), the “Serum ACE Activity” value was 55.94 ± 0.75 U/L. In series [1] (Day 14 (efficiency value)), the “Serum ACE Activity” value is listed as 23.92 ± 0.60 U/L. In addition, the “Serum ACE Activity” value in series [1] (setting [10]) came to 51.80 ± 0.80 U/L. Further, in series [2], the “mean tissue ACE activity in thigh muscles” value came to 7.65±1.69 Ul/g and the “residual tissue ACE activity, % of non-treated tissue activity” value is 61%. The NO accumulation entry in the series on coronary microvessels is “promotion of NO accumulation”. For the same molecule, the angiographic score in series [6] is on record as 35.03±0.02%. Further, the capillary density in [7] is on record as 147.2±11.9 /mm^2.

In the case of `NC(N)=NCCC[C@@H](N)C(=O)N[C@@H](CCCN=C(N)N)C(=O)N1CCC[C@H]1C(=O)N1C[C@H](O)C[C@H]1C(=O)NCC(=O)N[C@@H](Cc1cccs1)C(=O)N[C@@H](CO)C(=O)N1Cc2ccccc2C[C@@H]1C(=O)N1[C@H](C(=O)N[C@@H](CCCN=C(N)N)C(=O)O)C[C@@H]2CCCC[C@@H]21` [Icatibant], in the series on B2-receptor, the “effect on cardiac capillary length density induced by ACE inhibition” value is reported as “inhibited”.

Consider `CCOC(=O)[C@H](CCc1ccccc1)N[C@@H](C)C(=O)N1[C@H](C(=O)O)C[C@@H]2CCC[C@@H]21` [ramipril], for which, in the series with coronary microvessels, the NO accumulation result was “promotion of NO accumulation”.

As to `C[C@H](N[C@@H](CCc1ccccc1)C(=O)O)C(=O)N1CCC[C@H]1C(=O)O` [enalaprilat], the NO accumulation result in the series with coronary microvessels is “promotion of NO accumulation”.

The values above are taken from patent US6191144A, “Method of using angiotensin converting enzyme inhibitor to stimulate angiogenesis” (priority 1999, dated 2001).
